Values quoted from earlier work as cited in patent US11236258B2, “Aqueous based dust control compositions and methods” (Trican Well Service Ltd, priority 2018, dated 2022).

What was measured:
[1] = within 14 days

Compound	solubility in water	measured solubility in water	biodegradation, degradation [1]
C[N+](C)(C)CCO [CHO, choline]	3610 µg/mL		
C[N+](C)(C)CCO.[Cl-] [Choline chloride, choline chloride]		650000 µg/mL	93%
C[N+](C)(C)CCOP(=O)(O)OCC(O)CO (stereo not shown) [GPC, glycerophosphocholine]	4040 µg/mL		
